This note sets out measurements from ChEMBL document CHEMBL1201862, “PubChem BioAssay data set” (2004).

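Growth conditions: 96-well plates. Treatment: test compound, 48 hours, 5 concentrations. Analysis: linear interpolation between bracketing concentrations; unreached endpoints set to highest concentration. Here, GI50 denotes the concentration required for 50% inhibition of growth.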 Activity calls are given as the source filed them. Rule as the data show it: active = GI50 up to about 1.1 µM and inactive = higher. Some results are limits rather than exact numbers.

Test systems include EKVX; U-251; SF-295; M14; OVCAR-4; COLO 205; ACHN; NCI-H522; MOLT-4; HCC 2998; NCI-H226; LXFL 529; UO-31; SK-MEL-2; Malme-3M; OVCAR-5; HL-60; RPMI-8226; RXF 393; SR.
Test in all cases: DTP human tumour cell line panel, 48 h

Broadly, the GI50 is the concentration giving 50% growth inhibition. As to `COc1cc(C(=O)C/C(CCC(=O)Nc2ccc(Cl)cc2C)=N/NC(=O)C(N)=O)ccc1O`, the GI50 in the assay with EKVX, in the assay with U-251, in the assay on SF-295, in the assay on M14, in the assay on OVCAR-4 and in the assay on COLO 205 was > 100 µM (inactive) throughout. For the same molecule, the GI50 with ACHN, in the assay on NCI-H522, in the assay with MOLT-4, in the assay with HCC 2998, in the assay on NCI-H226 and in the assay on LXFL 529 was > 100 µM (inactive) throughout. In addition, the GI50 in the assay with UO-31 was 43.1 µM (inactive); in the assay with SK-MEL-2, > 100 µM (inactive); in the assay on Malme-3M it was > 100 µM (inactive); with OVCAR-5, > 100 µM (inactive); in the assay with HL-60, > 100 µM (inactive); in the assay on RPMI-8226, > 100 µM (inactive).

Consider `Cc1c(C)c2c(c(N)c1C#N)C(=O)N(N)C2=O`, for which the GI50 in the assay with EKVX, in the assay on U-251, in the assay on SF-295, in the assay on M14, in the assay on RXF 393 and in the assay with OVCAR-4 was > 100 µM (inactive) each time. Moreover, the GI50 in the assay on COLO 205 is > 100 µM (inactive); in the assay on ACHN, > 100 µM (inactive); in the assay on NCI-H522, > 100 µM (inactive); with MOLT-4, 61.7 µM (inactive); in the assay with HCC 2998, > 100 µM (inactive); with NCI-H226, 78.7 µM (inactive). Further, the GI50 in the assay with UO-31 was 93.3 µM (inactive); in the assay with SK-MEL-2 it was > 100 µM (inactive); in the assay with Malme-3M it was > 100 µM (inactive); in the assay on OVCAR-5 it was > 100 µM (inactive); with HL-60, > 100 µM (inactive); in the assay with RPMI-8226, > 100 µM (inactive). Moreover, in the assay on SR, the GI50 was 26.3 µM (inactive).

In the case of `CC(=O)O[C@@H]1C[C@]2(C(=O)c3ccccc3)C(=O)C(=O)S[C@]12c1ccccc1`, the GI50 in the assay with EKVX is 52.2 µM (inactive); with U-251, 31.3 µM (inactive); in the assay with SF-295, 65.9 µM (inactive); with M14 it was 38.4 µM (inactive); with RXF 393, 25.9 µM (inactive); with OVCAR-4, 56.1 µM (inactive). Besides, the GI50 in the assay on COLO 205 is 38.3 µM (inactive); with ACHN, 62.2 µM (inactive); in the assay on NCI-H522 it was 29.6 µM (inactive); with MOLT-4, 28.4 µM (inactive); in the assay on HCC 2998, 26.7 µM (inactive); in the assay on NCI-H226, 52.6 µM (inactive). For the same molecule, the GI50 is 42.8 µM (inactive) in the assay with UO-31; 38.5 µM (inactive) in the assay on SK-MEL-2; > 100 µM (inactive) with Malme-3M; > 100 µM (inactive) in the assay with OVCAR-5; 0.225 µM (active) in the assay with HL-60; 30.4 µM (inactive) in the assay with RPMI-8226. The GI50 with SR was 32.9 µM (inactive).

As for `CCOC(=O)c1cccc(=O)c(C(=O)OCC)c1`, the GI50 is > 100 µM (inactive) in the assay on EKVX; 32.4 µM (inactive) with U-251; 2.38 µM (inactive) in the assay with SF-295; 81.3 µM (inactive) in the assay with M14; 36.2 µM (inactive) with RXF 393; 48.1 µM (inactive) in the assay on OVCAR-4. For the same molecule, the GI50 with ACHN is 63.7 µM (inactive); in the assay on MOLT-4, 35.7 µM (inactive); with HCC 2998, > 100 µM (inactive); in the assay with NCI-H226 it was 19.1 µM (inactive); in the assay on LXFL 529 it was 38.3 µM (inactive); with UO-31 it was 29.4 µM (inactive). Moreover, the GI50 in the assay on SK-MEL-2 is 47 µM (inactive); in the assay on Malme-3M it was 66.1 µM (inactive); with OVCAR-5, > 100 µM (inactive); in the assay on HL-60, 26.6 µM (inactive); in the assay on RPMI-8226, 29.3 µM (inactive).

On to `O=C1Oc2ccccc2C(=O)/C1=C/N1C(=O)N/C(=C\c2ccccc2O)C1=O`, for which the GI50 was > 67.8 µM (inactive) in the assay on EKVX; 57.7 µM (inactive) with U-251; > 71 µM (inactive) in the assay with SF-295; 66.4 µM (inactive) in the assay with M14; 37.5 µM (inactive) in the assay with RXF 393; 55.3 µM (inactive) in the assay with OVCAR-4. In addition, the GI50 is 62.5 µM (inactive) in the assay with COLO 205; 47.6 µM (inactive) in the assay on ACHN; 55.5 µM (inactive) in the assay on NCI-H522; 41.2 µM (inactive) in the assay with MOLT-4; > 57.4 µM (inactive) in the assay with HCC 2998; 81.1 µM (inactive) with NCI-H226. Further, the GI50 with UO-31 was 39 µM (inactive); in the assay on SK-MEL-2, > 56.9 µM (inactive); in the assay on Malme-3M, > 100 µM (inactive); in the assay on OVCAR-5 it was > 100 µM (inactive); with HL-60, 60.3 µM (inactive); in the assay with RPMI-8226, 43 µM (inactive). Further, the GI50 in the assay with SR was 32.3 µM (inactive).

As for `O=C(O)c1nc2ccccc2nc1Nc1ccc(F)cc1`, the GI50 is 36.4 µM (inactive) with EKVX; 37.7 µM (inactive) with U-251; 24 µM (inactive) with SF-295; 25.5 µM (inactive) with M14; 14.5 µM (inactive) in the assay with RXF 393; 41.8 µM (inactive) in the assay with OVCAR-4. Besides, the GI50 is 29.5 µM (inactive) with COLO 205; 26.9 µM (inactive) with ACHN; 25.1 µM (inactive) in the assay on NCI-H522; 28.3 µM (inactive) in the assay with MOLT-4; 32.1 µM (inactive) in the assay with HCC 2998; 23.7 µM (inactive) in the assay with NCI-H226. The GI50 was 43 µM (inactive) with UO-31; 26.9 µM (inactive) in the assay on SK-MEL-2; 37.9 µM (inactive) with Malme-3M; 56.4 µM (inactive) with OVCAR-5; 25.7 µM (inactive) in the assay on HL-60; 23.1 µM (inactive) with RPMI-8226. Also, the GI50 in the assay on SR was 32.7 µM (inactive).

As for `CCOC(=O)C1=C(C)N(Cc2ccccc2)C2(O)C=CC(=O)C3C(=O)N(c4ccccc4)C(=O)C132` (centres undefined), the GI50 with EKVX is 10.3 µM (inactive); with U-251, 2.69 µM (inactive); in the assay on SF-295, 3.58 µM (inactive); with M14 it was 1.81 µM (inactive); in the assay with RXF 393, 1.35 µM (inactive); with OVCAR-4 it was 1.98 µM (inactive). Also, the GI50 is 1.51 µM (inactive) in the assay on COLO 205; 1.63 µM (inactive) in the assay on ACHN; 1.57 µM (inactive) in the assay with NCI-H522; 2.11 µM (inactive) in the assay on MOLT-4; 1.67 µM (inactive) in the assay with HCC 2998; 2.45 µM (inactive) with NCI-H226. Moreover, the GI50 in the assay on UO-31 is 1.89 µM (inactive); in the assay with SK-MEL-2 it was 1.98 µM (inactive); in the assay with Malme-3M, 2.81 µM (inactive); with OVCAR-5, 3.43 µM (inactive); in the assay on HL-60, 1.99 µM (inactive); with RPMI-8226, 1.03 µM (active). For the same molecule, in the assay with SR, the GI50 is 1.01 µM (active).

Take `C/C=N\n1c(C)n[nH]c1=O`: the GI50 with EKVX, in the assay with U-251, in the assay on SF-295, in the assay with M14, in the assay with RXF 393 and with OVCAR-4 was > 100 µM (inactive) each time. For the same molecule, the GI50 in the assay with COLO 205, in the assay on ACHN, in the assay with NCI-H522, in the assay with MOLT-4, in the assay on HCC 2998 and in the assay on NCI-H226 was > 100 µM (inactive) each time. Besides, the GI50 in the assay with UO-31, with SK-MEL-2, in the assay on Malme-3M, in the assay with OVCAR-5, in the assay on HL-60 and in the assay with RPMI-8226 was > 100 µM (inactive) throughout. The GI50 in the assay on SR is > 100 µM (inactive).

With `N#CC(C#N)[C@@H]1CCC=C(Sc2ccccc2)[C@H]1Sc1ccccc1`, the GI50 was 4.54 µM (inactive) with EKVX; 5.81 µM (inactive) in the assay on U-251; 6.44 µM (inactive) with SF-295; 1.96 µM (inactive) in the assay with M14; 1.83 µM (inactive) in the assay with RXF 393; 4.6 µM (inactive) in the assay on OVCAR-4. Also, the GI50 was 2.2 µM (inactive) in the assay on COLO 205; 2.34 µM (inactive) with ACHN; 2.19 µM (inactive) in the assay on NCI-H522; 2.38 µM (inactive) with MOLT-4; 2.86 µM (inactive) in the assay on HCC 2998; 1.72 µM (inactive) in the assay with NCI-H226. Further, the GI50 with UO-31 was 5.31 µM (inactive); in the assay on SK-MEL-2, 3.07 µM (inactive); in the assay with Malme-3M, 2.42 µM (inactive); in the assay on OVCAR-5, 5.58 µM (inactive); in the assay with HL-60, 2.01 µM (inactive); in the assay on RPMI-8226 it was 2.28 µM (inactive). Besides, the GI50 in the assay with SR was 1.97 µM (inactive).

For the molecule `COc1ccc(C(=O)C(CO)Oc2ccccc2OC)cc1OC` (centres undefined), the GI50 with EKVX, in the assay with U-251, in the assay on SF-295, in the assay on M14, with OVCAR-4 and in the assay with COLO 205 was > 100 µM (inactive) each time. Further, the GI50 with ACHN was > 100 µM (inactive); with NCI-H522, 91 µM (inactive); in the assay with MOLT-4 it was > 100 µM (inactive); in the assay on HCC 2998, > 100 µM (inactive); with LXFL 529 it was > 100 µM (inactive); in the assay with UO-31, > 100 µM (inactive). The GI50 in the assay with SK-MEL-2, in the assay with Malme-3M, in the assay with OVCAR-5, with HL-60 and in the assay with RPMI-8226 was > 100 µM (inactive) in each case.

In the case of `O=C(O)c1ccc(Nc2nc3ccc(C(F)(F)F)cc3nc2C(=O)O)cc1`, the GI50 in the assay on EKVX, in the assay on U-251, in the assay with SF-295, with M14, in the assay on RXF 393 and with OVCAR-4 was > 100 µM (inactive) in each case. The GI50 in the assay on COLO 205, with ACHN, in the assay with NCI-H522, in the assay on MOLT-4, in the assay on HCC 2998 and in the assay with NCI-H226 was > 100 µM (inactive) throughout. The GI50 in the assay with UO-31, with SK-MEL-2, in the assay on Malme-3M, in the assay with OVCAR-5, in the assay with HL-60 and in the assay with RPMI-8226 was > 100 µM (inactive) throughout. Moreover, in the assay on SR, the GI50 was > 100 µM (inactive).
